The results in this text go back to patent US11446352B2, “Compositions and methods for inhibiting tumor-induced immune suppression” (priority 2017, dated 2022).

The test system of data set [1] is HER2+ MAD-MB-453 cell line. Briefly: cell survival of breast cancer cell line upon treatment with EnnA. In kind it is cell-based, human. Conditions: MAD-MB-453, 48 and 72 h. An excerpt:
(§1) The first bar indicates 100% folding activity of RRL without inhibitor. PR22 indicates the antibody without PR but with RRL and EnnA. PR represents the antibody (PR22) with PR but without RRL. All other samples have PR22, PR, and RRL without (first bar) or with increased concentration of EnnA. FIGS. 1C-1E are line graphs of cell survival versus EnnA concentration (μM) in breast cancer cell lines Hs578T (FIG. 1C), […] (FIG. 1D) and MDA-MB231 (FIG. 1E) upon treatment with EnnA for 48 and 72 h. […] PR alone (PR), antibody (PR22)+RRL, PR+RRL without inhibitor (RRL), PR+RRL with 1 μM 17-AAG (17AAG) PR+RRL with 10 μM BEAU or EnnA. FIGS. 1G-1I are autoradiographs of Western blots of cytosols from various cell lines treated with 17-AAG (1 μM) or EnnA (3 μM) with antibodies against the specified proteins. FIG. 1J is an autoradiograph showing EnnA causes autophagy in Hs578T and MDA-MB453 cell lines. FIGS. 1K-1N are electron microscopy micrographs showing autophagosomes and reduced mitochondria content in Hs578T cells treated with DMSO or EnnA. FIGS. 1O-1P are fluorescence micrographs showing EnnA causing reduced mitochondria content in Hs578T cells. FIGS. 1Q-1BB are fluorescence micrographs showing mitophagy in Hsp578T cells treated with EnnA as indicated by colocalization of the mitochondria marker Cox4 and the autophagy marker LC3BII.

Data set [2] relates to Hs578T triple-negative cell line. The description is as above. In kind it is cell-based, human. The note with it: 48 and 72 h.
Source text: as §1

The subject of data set [3] is MDA-MB-231 cell line. Described as above. In kind it is cell-based, human. The note with it: MDA-MB-231, 48 and 72 h.
Source text: as §1

Data set [4] relates to 4T1 cells. Briefly: MTT cell proliferation assay. In kind it is cell-based, murine. Conditions: 4T1, in vitro, 72 h. An excerpt: (§2) FIGS. 2I-2K show FACS analysis of Hsp90β expression on the cell surface of E0771 cells treated with DMSO or EnnA. FIGS. 2L-2N show FACS analysis of the ratio of Hsp90α to Hsp90β expression on the cell surface of E0771 cells treated with DMSO or EnnA. FIGS. 2O-2Q show FACS analysis of Hsp90α expression on the cell surface of E0771 cells treated with DMSO or EnnA. FIG. 2R is a bar graph showing expression of Hsp90β on the surface of AT3 cells treated with DMSO or EnnA. FIG. 2S is a bar graph showing expression of Hsp90α on the surface of AT3 cells treated with DMSO or EnnA. FIGS. 2T-2X show FACS analysis of Hsp90β expression on the surface of E0771 tumor cells treated with mIgG, DMSO, or EnnA.
(§3) The mechanism of action of EnnA appears to be different from that of 17-AAG. […] Further studies studies using murine breast cancer cells lines have shown that EnnA kills E0771, AT3, EMT6 and 4T1 in vitro (FIG. 2A-2D).
For orientation: Tetrazolium dyes change colour on reduction, which living cells bring about.

The subject of data set [5] is AT3 cells. The data set can be described thus: MTT cell proliferation assay. In kind it is cell-based, murine. Conditions: AT3, in vitro, 72 h.
Source text: as §2, §3

In data set [6] the test system is E0771 cells. The data set can be described thus: MTT cell proliferation assay. Conditions: E0771, in vitro, 72 h. In kind it is cell-based, murine.
Source text: as §2, §3

Data set [7] has as its system EMT6 cells. The data set can be described thus: MTT cell proliferation assay. In kind it is cell-based, murine. Conditions: EMT6, in vitro, 72 h.
Source text: as §2, §3

Data set [8] concerns AT3 cells. The data set can be described thus: Western blot of control and EnnA-treated cells. In kind it is cell-based, murine. Conditions: AT3, 0.5 μM EnnA. The procedure:
(§4) FIG. 3A-3B are autoradiographs of a Western blot showing expression of the indicated proteins in control (left lane) and 0.5 μM EnnA-treated (right lane) E0771 (FIG. 3A) and AT3 (FIG. 3B) cells. FIG. 3C is a graph showing FACS analysis of PD-L1 level in AT3 cells. FIGS. 3D-3K are graphs showing qPCR analysis of the mRNA level of cytokines TNFa (FIG. 3D), IL-6 (FIG. 3E), TGFb1 (FIG. 3F) and IL-10 (FIG. 3G), the chemokines S100a9 (FIG. 3J) and CCL3 (FIG. 3K), as well as PDL1 (FIG. 3H) and IDO (FIG. 3I). FIGS. 3L-3Q are micrographs of HEK293 cells transiently transfected with GFP-IDO fusion protein expressing or GFP alone plasmids for 24 h. Cells were then treated with 5 μM EnnA for 6 h and analyzed for green fluorescence and bright light. FIG. 3R is a line graph of μg/ml of tryptophan and its IDO-mediated product kynurenine using the previously reported HPLC-based assay.

The subject of data set [9] is E0771 cells. Briefly: Western blot of control and EnnA-treated cells. In kind it is cell-based, murine. As to the method:
as §4

Data set [10] concerns murine breast cancer cells. The data set can be described thus: qPCR analysis of mRNA level of cytokines, chemokines, PDL1 and IDO. In kind it is cell-based. The procedure: as §4
For orientation: Real-time PCR tracks product formation cycle by cycle.

Data set [11] concerns IDO. The data set can be described thus: HPLC-based assay of tryptophan and kynurenine in culture media. In kind it is cell-based. Conditions: HEK 293 cells expressing IDO-GFP. The procedure:
as §4
Western blot analysis (FIG. 3A-3B) confirmed that EnnA destabilizes pAKT and reduces the protein expression of Hsp40 in E0771 and AT3. […] It also reduces the mRNA level of the chemokines S100a9 and CCL3 (FIG. 3J-3K). Importantly, EnnA reduces the mRNA and protein levels of the key immunological checkpoint component PDL-1 (FIG. 3H). Similar results were obtained with EMT6 (not shown). […]

In data set [12] the test system is E0771 tumors. Briefly: E0771 tumor model in immunocompromised nude mice. In kind it is in vivo. The note with it: 10 mg/kg every other day. The procedure:
50,000 E0771 cells were surgically implanted in mammary fad pad of 10 C57BL/6 immunocompetent mice and 10 immunocompromised nude mice. 12 days after surgery, B6 and nude mice were divided into two groups each. the EnnA group was injected with 10 mg/kg of EnnA every other day, and the control group received a mixture of 15% DMSO and 20% cremophor in PBS.

As for `CC[C@H](C)[C@H]1C(=O)O[C@H](C(C)C)C(=O)N(C)[C@@H]([C@@H](C)CC)C(=O)O[C@H](C(C)C)C(=O)N(C)[C@@H]([C@@H](C)CC)C(=O)O[C@H](C(C)C)C(=O)N1C` [EnnA, Enniatin A], the cytotoxicity entry in data set [1] is “potent and concentration-dependent cytotoxicity”. Also, the cytotoxicity result in [2] was “potent and concentration-dependent cytotoxicity”. In data set [3], the cytotoxicity result was “potent and concentration-dependent cytotoxicity”. This molecule yielded an IC50 in data set [4] of roughly 2.5 µM. The molecule further had a concentration for half-maximal inhibition (IC50) in data set [5] of 5 to 10 µM. In [6], this molecule came in with an IC50 of 5 to 10 µM. Besides, the IC50 in data set [7] was roughly 2.5 µM. Also, in [8], the Hsp70 protein entry is “reduced”, the pAKT protein entry is listed as “destabilizes” and the “protein expression of Hsp40” value is “reduces”. For the same molecule, in [9] (E0771 (FIG. 3A), 0.5 μM EnnA), the IDO protein level result is on record as “severely reduced”. Also, in [9] (E0771, 0.5 μM EnnA), the Hsp70 protein entry was “slightly increased”, the pAKT protein entry is “destabilizes” and the “protein expression of Hsp40” value is “reduces”. In addition, in data set [10], the “level of anti-inflammatory IL-10 mRNA” value is “reduces”, the “mRNA expression of IL-6” value was “significant increase”, the “mRNA expression of TGFβ” value was “significant increase” and the “mRNA expression of TNFα” value is on record as “significant increase”. In addition, in data set [10], the “mRNA expression of indolamine 2,3 dioxygenase” value is listed as “highly increased”, the “mRNA level of chemokine CCL3” value was “reduces” and the “mRNA level of chemokine S100a9” value is given as “reduces”. Besides, the “mRNA and protein levels of PDL-1” value in data set [10] (Western blot / FACS) is recorded as “reduces”. Further, in [11], the “IDO enzymatic activity (tryptophan accumulation, kynurenine reduction in culture media)” value is listed as “loss of IDO enzymatic activity”. Moreover, the “anti-tumor activity (tumor volume)” value in data set [12] is “no significant anti-tumor activity”.

Usually IC50 stands for the point on the concentration scale where inhibition reaches its midpoint. A low value points to greater potency.
